Our source for the IC50 values is patent publication US20090233943A9, “NEW COMPOUNDS 835” (priority 2007, published 2009).

For this assay, the target named is T1, human β-Secretase (soluble part, AA 1-AA 460, sBACE-Fc) (Homo sapiens, UniProt P56817).
T1 construct: The soluble part of the human β-Secretase (AA 1-AA 460) was cloned; made in house
The assay is described as follows: TR-FRET assay (β-secretase enzyme). Type of assay: biochemical. On the procedure: The enzyme used in the IGEN Cleavage-, Fluorescent-, TR-FRET- and BiaCore assays is described as follows:
The soluble part of the human β-Secretase (AA 1-AA 460) was cloned into the ASP2-Fc10-1-IRES-GFP-neoK mammalian expression vector. The gene was fused to the Fc domain of IgG1 (affinity tag) and stably cloned into SEEK 293 cells. Purified sBACE-Fc is stored in Tris buffer, pH 9.2 and has a purity of 95%.
Enzyme was diluted to 6 μg/mL and the substrate (Europium)[…](Qsy7) to 200 nM in reaction buffer (NaAcetate, chaps, triton x-100, EDTA pH 4.5). Compounds were diluted to the desired concentration in dimethyl sulfoxide (final dimethyl sulfoxide concentration in assay is 5%). […] Enzyme (9 μL) and 1 μL of compound in dimethyl sulfoxide was added to the plate, mixed and pre-incubated for 10 min. Substrate (10 μL) was added and the reaction proceeded in the dark for 15 min at RT. The reaction was stopped with the addition of 7 μL NaAcetate, pH 9. The fluorescence of the product was measured on a Victor II plate reader with an excitation wavelength of 340 nm and an emission wavelength of 615 nm. […] The dimethyl sulfoxide control defined the 100% activity level and 0% activity was defined by exclusion of the enzyme (using reaction buffer instead).
On the technique in general: TR-FRET usually uses a lanthanide donor and a delayed reading to cut background.

Where a name gives a salt, the structure may show the parent alone.

T1 sequence (P56817 22-460): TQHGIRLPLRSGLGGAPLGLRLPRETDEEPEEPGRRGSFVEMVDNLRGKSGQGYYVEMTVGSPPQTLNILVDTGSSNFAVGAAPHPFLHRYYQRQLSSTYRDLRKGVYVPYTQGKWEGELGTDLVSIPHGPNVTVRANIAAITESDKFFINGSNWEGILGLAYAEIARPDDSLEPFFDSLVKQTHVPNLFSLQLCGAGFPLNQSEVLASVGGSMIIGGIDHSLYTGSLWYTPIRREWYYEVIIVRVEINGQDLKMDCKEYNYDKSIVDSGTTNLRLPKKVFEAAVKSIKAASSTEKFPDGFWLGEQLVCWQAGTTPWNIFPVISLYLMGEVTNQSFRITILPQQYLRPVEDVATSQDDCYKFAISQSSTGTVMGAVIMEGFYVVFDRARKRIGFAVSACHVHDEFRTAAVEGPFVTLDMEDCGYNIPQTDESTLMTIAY

As a reminder, the IC50 is the midpoint of a concentration-inhibition curve. A lower IC50 goes with inhibition by little substance. For the compound `CN1C(=O)C(c2ccc(S(F)(F)(F)(F)F)cc2)(c2cccc(-c3cccnc3F)c2)N=C1N` (stereo not shown) [Example 31, 2-amino-5-[3-(2-fluoropyridin-3-yl)phenyl]-3-methyl-5-[4-(pentafluoro-λ^6-sulfanyl)phenyl]-3,5-dihydro-4H-imidazol-4-one], the IC50 stood at 83 nM.
Consider `COc1cncc(-c2cc(C3(c4ccc(S(F)(F)(F)(F)F)cc4)N=C(N)N(C)C3=O)ccc2F)c1` (stereo not shown) [Example 25, 2-Amino-5-[4-fluoro-3-(5-methoxypyridin-3-yl)phenyl]-3-methyl-5-[4-(pentafluoro-λ^6-sulfanyl)phenyl]-3,5-dihydro-4H-imidazol-4-one], for which the IC50 turned out to be 30 nM.
In the case of `CN1C(=O)C(c2ccc(S(F)(F)(F)(F)F)cc2)(c2cccc(-c3cncc(C#N)c3)c2)N=C1N` (stereo not shown) [Example 45, 5-(3-{2-amino-1-methyl-5-oxo-4-[4-(pentafluoro-λ^6-sulfanyl)phenyl]-4,5-dihydro-1H-imidazol-4-yl}phenyl)pyridine-3-carbonitrile], inhibition was half-maximal at 59 nM (IC50).
In turn, `CN1C(=O)C(c2ccc(S(F)(F)(F)(F)F)cc2)(c2cccc(-c3cncc(F)c3)c2)N=C1N` (stereo not shown) [Example 35, 2-amino-5-[3-(5-fluoropyridin-3-yl)phenyl]-3-methyl-5-[4-(pentafluoro-λ^6 sulfanyl)phenyl]-3,5-dihydro-4H-imidazol-4-one] had a half-inhibitory concentration (IC50) of 68 nM.
Turning to `COc1cccc(-c2cccc(C3(c4ccc(S(F)(F)(F)(F)F)cc4)N=C(N)N(C)C3=O)c2)c1` (stereo not shown) [Example 40, 2-amino-5-(3′-methoxybiphenyl-3-yl)-3-methyl-5-[4-(pentafluoro-λ^6-sulfanyl)phenyl]-3,5-dihydro-4H-imidazol-4-one], the concentration for half-maximal inhibition (IC50) came out at 81 nM.
Regarding `CN1C(=O)C(c2cccc(S(F)(F)(F)(F)F)c2)(c2ccc(F)c(-c3cncc(F)c3)c2)N=C1N` (stereo not shown) [Example 52, 2-Amino-5-[4-fluoro-3-(5-fluoropyridin-3-yl)phenyl]-3-methyl-5-[3-(pentafluoro-λ^6-sulfanyl)phenyl]-3,5-dihydro-4H-imidazol-4-one], the IC50 is 1190 nM.
Turning to `CN1C(=O)C(c2ccc(S(F)(F)(F)(F)F)cc2)(c2cccc(-c3cc(C#N)ccc3F)c2)N=C1N` (stereo not shown) [Example 39, 2-amino-5-(2′-fluoro-5′-carbonitrilebiphenyl-3-yl)-3-methyl-5-[4-(pentafluoro-λ^6-sulfanyl)phenyl]-3,5-dihydro-4H-imidazol-4-one], the IC50 stood at 356 nM.
In the case of `CN1C(=O)C(c2ccc(S(F)(F)(F)(F)F)cc2)(c2cccc(-c3cn(C)cn3)c2)N=C1N` (stereo not shown) [Example 44, 2-amino-3-methyl-5-[3-(1-methyl-1H-imidazol-4-yl)phenyl]-5-[4-(pentafluoro-λ^6-sulfanyl)phenyl]-3,5-dihydro-4H-imidazol-4-one], the IC50 is 643 nM.
`CN1C(=O)C(c2ccc(S(F)(F)(F)(F)F)cc2)(c2cccc(-c3cnccn3)c2)N=C1N` (stereo not shown) [Example 36, 2-amino-3-methyl-5-[4-(pentafluoro-λ^6-sulfanyl)phenyl]-5-(3-pyrazin-2-ylphenyl)-3,5-dihydro-4H-imidazol-4-one] displayed an IC50 of 56 nM.
For `CN1C(=O)C(c2cccc(S(F)(F)(F)(F)F)c2)(c2ccc(F)c(-c3cncnc3)c2)N=C1N` (stereo not shown) [Example 48, 2-Amino-5-(4-fluoro-3-pyrimidin-5-ylphenyl)-3-methyl-5-[3-(pentafluoro-λ^6-sulfanyl)phenyl]-3,5-dihydro-4H-imidazol-4-one 0.25 acetate], the IC50 turned out to be 487 nM.
`COc1cccc(-c2cc(C3(c4ccc(N=S(C)(C)=O)cc4)N=C(N)N(C)C3=O)ccc2F)c1` (stereo not shown) [Example 5, 2-Amino-5-(4-{[dimethyl(oxido)-λ^4-sulfanylidene]amino}phenyl)-5-(6-fluoro-3′-methoxybiphenyl-3-yl)-3-methyl-3,5-dihydro-4H-imidazol-4-one hydrochloride]: the IC50 turned out to be 756 nM.
Compound `COc1cncc(-c2cc(C3(c4ccc(S(F)(F)(F)(F)F)cc4)N=C(N)N(C)C3=O)ccc2F)c1` (single isomer, unassigned) [26 isomer 2] displayed an IC50 of 465 nM.
In turn, `COc1cncc(-c2cc(C3(c4cccc(S(F)(F)(F)(F)F)c4)N=C(N)N(C)C3=O)ccc2F)c1` (stereo not shown) [Example 51, 2-Amino-5-[4-fluoro-3-(5-methoxypyridin-3-yl)phenyl]-[3-methyl-5-3-(pentafluoro-6-sulfanyl)phenyl]-3,5-dihydro-4H-imidazol-4-one] returned an IC50 of 305 nM.
The compound `CN1C(=O)C(c2ccc(S(F)(F)(F)(F)F)cc2)(c2ccc(F)c(-c3cccnc3)c2)N=C1N` (stereo not shown) [Example 24, 2-Amino-5-(4-fluoro-3-pyridin-3-ylphenyl)-3-methyl-5-[4-(pentafluoro-λ^6-sulfanyl)phenyl]-3,5-dihydro-4H-imidazol-4-one] displayed a half-inhibitory concentration (IC50) of 53 nM.
In the case of `COc1cncc(-c2cc(C3(c4ccc(S(F)(F)(F)(F)F)cc4)N=C(N)N(C)C3=O)ccc2F)c1` (single isomer, unassigned) [26 isomer 1], half-maximal inhibition (IC50) was put at 13 nM.
Consider `CN1C(=O)C(c2cccc(S(F)(F)(F)(F)F)c2)(c2ccc(F)c(-c3cncc(C#N)c3)c2)N=C1N` (stereo not shown) [Example 49, 5-(5-{2-Amino-1-methyl-5-oxo-4-[3-(pentafluoro-λ^6-sulfanyl)phenyl]-4,5-dihydro-1H-imidazol-4-yl}-2-fluorophenyl)nicotinonitrile 0.25 acetate], for which the IC50 worked out at 1140 nM.
In turn, `CN1C(=O)C(c2ccc(S(F)(F)(F)(F)F)cc2)(c2cccc(-c3cscn3)c2)N=C1N` (stereo not shown) [Example 43, 2-amino-3-methyl-5-[4-(pentafluoro-λ^6-sulfanyl)phenyl]-5-[3-(1,3-thiazol-4-yl)phenyl]-3,5-dihydro-4H-imidazol-4-one] had an IC50 of 673 nM.
The result for `CN1C(=O)C(c2ccc(S(F)(F)(F)(F)F)cc2)(c2ccc(F)c(-c3cnccc3C#N)c2)N=C1N` (stereo not shown) [Example 29, 3-(5-{2-amino-1-methyl-5-oxo-4-[4-(pentafluoro-λ^6-sulfanyl)phenyl]-4,5-dihydro-1H-imidazol-4-yl}-2-fluorophenyl)isonicotinonitrile 0.25 acetate] reads 81 nM; that for `COc1ccc(F)c(-c2cccc(C3(c4ccc(S(F)(F)(F)(F)F)cc4)N=C(N)N(C)C3=O)c2)c1` (stereo not shown) [Example 38, 2-amino-5-(2′-fluoro-5′-methoxybiphenyl-3-yl)-3-methyl-5-[4-(pentafluoro-λ^6 sulfanyl)phenyl]-3,5-dihydro-4H-imidazol-4-one], 71 nM; that for `CN1C(=O)C(c2cccc(S(F)(F)(F)(F)F)c2)(c2ccc(F)c(-c3cccnc3)c2)N=C1N` (stereo not shown) [Example 50, 2-Amino-5-(4-fluoro-3-pyridin-3-ylphenyl)-3-methyl-5-[3-(pentafluoro-λ^6-sulfanyl)phenyl]-3,5-dihydro-4H-imidazol-4-one], 317 nM.
Compound `COc1cccc(-c2cccc(C3(c4ccc(S(F)(F)(F)(F)F)cc4)N=C(N)N(C)C3=O)c2)c1F` (single isomer, unassigned) [37 isomer 2] gave an IC50 of 2630 nM.
The same measure for `CN1C(=O)C(c2ccc(S(F)(F)(F)(F)F)cc2)(c2cccc(-c3cnccc3C#N)c2)N=C1N` (stereo not shown) [Example 34, 3-(3-{2-amino-1-methyl-5-oxo-4-[4-(pentafluoro-λ^6-sulfanyl)phenyl]-4,5-dihydro-1H-imidazol-4-yl}phenyl)pyridine-4-carbonitrile]: 467 nM; for `CN1C(=O)C(c2ccc(S(F)(F)(F)(F)F)cc2)(c2ccc(F)c(-c3cnccn3)c2)N=C1N` (stereo not shown) [Example 30, 2-amino-5-(4-fluoro-3-pyrazin-2-ylphenyl)-3-methyl-5-[4-(pentafluoro-λ^6-sulfanyl)phenyl]-3,5-dihydro-4H-imidazol-4-one 0.75 acetate]: 124 nM.
The result for `COc1cccc(-c2cccc(C3(c4ccc(S(F)(F)(F)(F)F)cc4)N=C(N)N(C)C3=O)c2)c1F` (single isomer, unassigned) [37 isomer 1] reads 49 nM.
Compound `CN1C(=O)C(c2ccc(S(F)(F)(F)(F)F)cc2)(c2ccc(F)c(-c3cncnc3)c2)N=C1N` (stereo not shown) [Example 22, 2-Amino-5-(4-fluoro-3-pyrimidin-5-ylphenyl)-3-methyl-5-[4-(pentafluoro-λ^6-sulfanyl)phenyl]-3,5-dihydro-4H-imidazol-4-one] came in with an IC50 of 49 nM.
`CN1C(=O)C(c2ccc(S(F)(F)(F)(F)F)cc2)(c2ccc(F)c(-c3cncc(F)c3)c2)N=C1N` (stereo not shown) [Example 27, 2-Amino-5-[4-fluoro-3-(5-fluoropyridin-3-yl)phenyl]-3-methyl-5-[4-(pentafluoro-λ^6-sulfanyl)phenyl]-3,5-dihydro-4H-imidazol-4-one 0.25 acetate]: the IC50 was determined as 81 nM.
Regarding `COc1ccc(F)c(-c2cccc(C3(c4ccc(S(F)(F)(F)(F)F)cc4)N=C(N)N(C)C3=O)c2)c1F` (stereo not shown) [Example 47, 2-amino-5-(2′,6′-difluoro-3′-methoxybiphenyl-3-yl)-3-methyl-5-[4-(pentafluoro-λ^6-sulfanyl)phenyl]-3,5-dihydro-4H-imidazol-4-one], half-maximal inhibition (IC50) was put at 38 nM.
In turn, `CN1C(=O)C(c2ccc(S(F)(F)(F)(F)F)cc2)(c2ccc(F)c(-c3cccnc3F)c2)N=C1N` (stereo not shown) [Example 28, 2-amino-5-[4-fluoro-3-(2-fluoropyridin-3-yl)phenyl]-3-methyl-5-[4-(pentafluoro-λ^6-sulfanyl)phenyl]-3,5-dihydro-4H-imidazol-4-one 0.25 acetate] yielded an IC50 of 69 nM.
